Assay results as given in patent US20240398989A1, “METHODS AND COMPOSITIONS FOR DIAGNOSIS AND TREATMENT OF METABOLIC DISORDERS” (The Broad Institute, Inc., priority 2021, published 2024).

Test system: primary human hepatocytes (PHH)
Assay: LipocyteProfiler of drug-treated primary human hepatocytes
Assay type: cell-based
Conditions: PHH, 24h oleic acid (0.3 mM)
Protocol: Primary human hepatocytes (PHH) were purchased from BioIVT. Donor lot YNZ was used in this study. PHH were thawed and immediately resuspended in CP media (BioIVT) supplemented with torpedo antibiotic (BioIVT). Cell count and viability were assessed by trypan blue exclusion test prior to plating. […] Four hours after plating, media was replaced with fresh CP media. After 24 h, media was replaced with fresh CP media or CP media containing oleic acid (0.3 mM) or metformin (5 mM). Hepatocytes were incubated for an additional 24 h prior to processing. Human primary AMSCs and PHH were plated in 96-well CellCarrier plates (Perkinelmer #6005550). […] Primary human hepatocytes were stained after 48 h in culture, and 24h following treatment with oleic acid or metformin. On the respective day of the assay, cell culture media was removed and replaced by 0.5 μM Mitotracker staining solution (1 mM MitoTracker Deep Red stock (Invitrogen #M22426) diluted in culture media) to each well followed by 30 minutes incubation at 37° C.' protected from light. […] PFA was removed and cells were washed once with Hank's Balanced Salt Solution (1×), HBSS (Gibco #14025076). […] Finally, staining solution was removed and cells were washed three times with HBSS. Cells were imaged using a Opera Phenix High content screening system. […] Prior to processing, flat field illumination correction was performed using functions generated from the median intensity across each plate. Nuclei were identified using the DAPI stain and then expanded to identify whole cells using the Phalloidin/WGA and BODIPY stains. Regions of cytoplasm were then determined by removing the Nuclei from the Cell segmentations. Speckles of BODIPY staining were enhanced to assist in detection of small and large individual Lipid objects. For each object set measurements were collected representing size, shape, intensity, granularity, texture, colocalization and distance to neighbouring objects. After LipocyteProfiler (LP) feature extraction data was filtered by applying automated and manual quality control steps. […] Second, every field was assessed visually and fields that were corrupted by experimental induced technical artifacts were removed. Furthermore, blocklisted features (Way, Gregory (2019): Blocklist Features-Cell Profiler. figshare. […] After filtering data were normalised per plate using a robust scaling approach (Pedregosa et al. 2011) that subtracts the median from each variable and divides it by the interquartile range. Individual wells were aggregated for downstream analysis by cell depot and day of differentiation.

CCCCCCCC/C=C\CCCCCCCC(=O)O [oleic acid]
BODIPY Texture_AngularSecondMoment (p 7.21e-07): differences | lipid droplet number (LargeBODIPYObjects_Count) (p=2.3e-11): increased | overall lipid content (BODIPY MeanIntensity) (p=1.21e-09): increased | BODIPY Texture Entropy (p=2.56e-09): differences
